Consider 24 compounds from patent US11891387B2, “Monoacylglycerol lipase modulators” (Janssen Pharmaceutica NV, priority 2020, dated 2024).

Usually IC50 stands for the midpoint of a concentration-inhibition curve. A lower IC50 goes with inhibition by little substance.

For this assay, the target named is human MGL from HeLa cells (Homo sapiens (Human), UniProt Q99685). As to the kind of experiment: MGL in vitro activity assay: cleavage of [glycerol-1,3-3H]-oleyl glycerol, activated carbon filtration. The assay is classed as biochemical. The conditions noted are these: 300 nM [Glycerol-1,3-3H]-oleyl glycerol, endogenously expressed MGL from HeLa cells, one hour incubation. As to the method: The assay used to measure the in vitro activity of MGL is adapted from the assay used for another serine hydrolase (FAAH) described in Wilson et al., 2003 (A high-throughput-compatible assay for determining the activity of fatty acid amide hydrolase. Wilson S J, Lovenberg T W, Barbier A J. Anal Biochem. 2003 Jul. 15; 318(2):270-5.). The assay consists of combining endogenously expressed MGL from HeLa cells with test compounds, adding [glycerol-1,3-^3H]-oleyl glycerol, incubating for one hour, and then measuring the amount of cleaved [1,3-^3H]-glycerol that passes through an activated carbon filter. The amount of cleaved, tritiated glycerol passing through the carbon filter is proportional to the activity of the MGL enzyme in a particular well/test condition.
Sequence of human MGL from HeLa cells (Q99685 whole entry): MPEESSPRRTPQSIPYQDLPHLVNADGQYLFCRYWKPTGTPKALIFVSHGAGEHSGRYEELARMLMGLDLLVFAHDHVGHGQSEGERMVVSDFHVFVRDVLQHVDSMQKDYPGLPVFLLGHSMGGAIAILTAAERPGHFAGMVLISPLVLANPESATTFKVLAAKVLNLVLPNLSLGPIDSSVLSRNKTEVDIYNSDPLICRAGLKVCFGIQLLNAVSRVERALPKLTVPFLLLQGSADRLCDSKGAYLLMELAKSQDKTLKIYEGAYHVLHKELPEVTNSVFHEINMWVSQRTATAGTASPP
Standard conditions for this assay combine 300 nM [Glycerol-1,3-^3H]-oleyl glycerol with human MGL from HeLa cells and test compounds for one hour, after which the reaction is filtered through activated carbon and tritium is measured in the flow through. The test compound concentration in screening mode is 10 μM, while the highest compound concentration in IC50 assays is determined empirically. MGL is the predominant hydrolase in HeLa cells/cell homogenates.
As for `C[C@H]1c2nn(C)c(-c3cc(C(F)(F)F)nn3C)c2CCN1C(=O)c1cccc(OC(F)(F)F)c1F` [Example 112, (S)-(2,7-Dimethyl-3-(1-methyl-3-(trifluoromethyl)-1H-pyrazol-5-yl)-2,4,5,7-tetrahydro-6H-pyrazolo[3,4-c]pyridin-6-yl)(2-fluoro-3-(trifluoromethoxy)phenyl)methanone], the IC50 worked out at 86 nM. `COc1cc(Cl)cc(C(=O)N2CCc3c(nn(C)c3-c3cc(C(F)(F)F)nn3C)[C@@H]2C)c1` [Example 39, (S)-(3-Chloro-5-methoxyphenyl)(2,7-dimethyl-3-(1-methyl-3-(trifluoromethyl)-1H-pyrazol-5-yl)-2,4,5,7-tetrahydro-6H-pyrazolo[3,4-c]pyridin-6-yl)methanone] came in with an IC50 of 38 nM. The result for `Cc1cc(C(=O)N2CCc3c(nn(C)c3-c3cc(C(F)(F)F)n(C)n3)[C@@H]2C)cc(-n2nccn2)c1` [Example 50, (S)-(2,7-Dimethyl-3-(1-methyl-5-(trifluoromethyl)-1H-pyrazol-3-yl)-2,4,5,7-tetrahydro-6H-pyrazolo[3,4-c]pyridin-6-yl)(3-methyl-5-(2H-1,2,3-triazol-2-yl)phenyl)methanone] reads 23 nM. On to `Cc1ccc2cc(C(=O)N3CCc4c(nn(C)c4-c4cnn(C)c4C(F)(F)F)[C@@H]3C)cc(C)c2n1` [Example 33, (S)-(2,7-Dimethyl-3-(1-methyl-5-(trifluoromethyl)-1H-pyrazol-4-yl)-2,4,5,7-tetrahydro-6H-pyrazolo[3,4-c]pyridin-6-yl)(2,8-dimethylquinolin-6-yl)methanone], for which the half-inhibitory concentration (IC50) worked out at 6470 nM. The compound `Cc1nc2ccccc2cc1C(=O)N1CCc2c(nn(C)c2-c2cc(C(F)(F)F)nn2C)[C@@H]1C` [Example 13, (S)-(2,7-Dimethyl-3-(1-methyl-3-(trifluoromethyl)-1H-pyrazol-5-yl)-2,4,5,7-tetrahydro-6H-pyrazolo[3,4-c]pyridin-6-yl)(2-methylquinolin-3-yl)methanone] yielded an IC50 of 220 nM.

In turn, `C[C@H]1c2nn(C)c(-c3cnn(C(F)(F)F)c3)c2CCN1C(=O)c1ccc2ncccc2c1` [Example 64, (S)-(2,7-Dimethyl-3-(1-(trifluoromethyl)-1H-pyrazol-4-yl)-2,4,5,7-tetrahydro-6H-pyrazolo[3,4-c]pyridin-6-yl)(quinolin-6-yl)methanone] yielded an IC50 of 79 nM. In turn, `C[C@H]1c2nn(C)c(-c3cc(C(F)(F)F)n(C)n3)c2CCN1C(=O)c1cnn2cccc(F)c12` [Example 19, (S)-(2,7-Dimethyl-3-(1-methyl-5-(trifluoromethyl)-1H-pyrazol-3-yl)-2,4,5,7-tetrahydro-6H-pyrazolo[3,4-c]pyridin-6-yl)(4-fluoropyrazolo[1,5-a]pyridin-3-yl)methanone] gave an IC50 of 19 nM.

Regarding `C[C@H]1c2nn(C)c(-c3cc(C(F)(F)F)n(C)n3)c2CCN1C(=O)c1ccc2ncsc2c1` [Example 120, (S)-Benzo[d]thiazol-6-yl(2,7-dimethyl-3-(1-methyl-5-(trifluoromethyl)-1H-pyrazol-3-yl)-2,4,5,7-tetrahydro-6H-pyrazolo[3,4-c]pyridin-6-yl)methanone], the IC50 is 46 nM. Under `C[C@H]1c2nn(C)c(-c3cc(C(F)(F)F)nn3C)c2CCN1C(=O)c1nn(C)c2ccccc12` [Example 6, (S)-(2,7-Dimethyl-3-(1-methyl-3-(trifluoromethyl)-1H-pyrazol-5-yl)-2,4,5,7-tetrahydro-6H-pyrazolo[3,4-c]pyridin-6-yl)(1-methyl-1H-indazol-3-yl)methanone] stands 37 nM; under `C[C@H]1c2nn(C)c(-c3cc(C(F)(F)F)nn3C)c2CCN1C(=O)c1cccc2c1ccn2C` [Example 45, (S)-(2,7-Dimethyl-3-(1-methyl-3-(trifluoromethyl)-1H-pyrazol-5-yl)-2,4,5,7-tetrahydro-6H-pyrazolo[3,4-c]pyridin-6-yl)(1-methyl-1H-indol-4-yl)methanone], 1.1 nM. As for `C[C@H]1c2nn(C)c(-c3cc(C(F)(F)F)nn3C)c2CCN1C(=O)c1nn(C)c2ccc(F)cc12` [Example 22, (S)-(2,7-Dimethyl-3-(1-methyl-3-(trifluoromethyl)-1H-pyrazol-5-yl)-2,4,5,7-tetrahydro-6H-pyrazolo[3,4-c]pyridin-6-yl)(5-fluoro-1-methyl-1H-indazol-3-yl)methanone], the IC50 was found to be 30 nM. The compound `COc1ccc2nc(C)cc(C(=O)N3CCc4c(nn(C)c4-c4cc(C(F)(F)F)nn4C)[C@@H]3C)c2c1` [Example 26, (S)-(2,7-Dimethyl-3-(1-methyl-3-(trifluoromethyl)-1H-pyrazol-5-yl)-2,4,5,7-tetrahydro-6H-pyrazolo[3,4-c]pyridin-6-yl)(6-methoxy-2-methylquinolin-4-yl)methanone] gave an IC50 of 880 nM. In the case of `Cn1nc(-c2c3c(nn2C)[C@@H]2CCC[C@H](C3)N2C(=O)c2ccc3ncccc3c2)cc1C(F)(F)F` [Example 87, ((5R,9S)-2-Methyl-3-(1-methyl-5-(trifluoromethyl)-1H-pyrazol-3-yl)-4,5,6,7,8,9-hexahydro-2H-5,9-epiminocycloocta[c]pyrazol-10-yl)(quinolin-6-yl)methanone], the IC50 came to 17 nM.

On to `Cc1cccc(C(=O)N2[C@@H]3CCC[C@H]2c2nn(C)c(-c4cc(C(F)(F)F)nn4C)c2C3)c1` (stereo in doubt) [Example 76, ((5R,9S)-2-Methyl-3-(1-methyl-3-(trifluoromethyl)-1H-pyrazol-5-yl)-4,5,6,7,8,9-hexahydro-2H-5,9-epiminocycloocta[c]pyrazol-10-yl)(m-tolyl)methanone], for which the IC50 is 68 nM. `Cc1ccc2c(F)c(C(=O)N3CCc4c(nn(C)c4-c4cc(C(F)(F)F)nn4C)[C@@H]3C)ccc2n1` [Example 90, (S)-(2,7-dimethyl-3-(1-methyl-3-(trifluoromethyl)-1H-pyrazol-5-yl)-2,4,5,7-tetrahydro-6H-pyrazolo[3,4-c]pyridin-6-yl)(5-fluoro-2-methylquinolin-6-yl)methanone] yielded an IC50 of 230 nM. Regarding `C[C@H]1c2nn(C)c(-c3cnn(C)c3C(F)(F)F)c2CCN1C(=O)c1cccc2cnn(C)c12` [Example 31, (S)-(2,7-Dimethyl-3-(1-methyl-5-(trifluoromethyl)-1H-pyrazol-4-yl)-2,4,5,7-tetrahydro-6H-pyrazolo[3,4-c]pyridin-6-yl)(1-methyl-1H-indazol-7-yl)methanone], the midpoint of inhibition, the IC50, lay at 10000 nM.

The compound `C[C@H]1c2nn(C)c(-c3cc(C(F)(F)F)nn3C)c2CCN1C(=O)c1cccc2ncsc12` [Example 57, (S)-Benzo[d]thiazol-7-yl(2,7-dimethyl-3-(1-methyl-3-(trifluoromethyl)-1H-pyrazol-5-yl)-2,4,5,7-tetrahydro-6H-pyrazolo[3,4-c]pyridin-6-yl)methanone] came in with an IC50 of 22 nM.

The compound `CCn1ccc(-c2c3c(nn2C)[C@H](C)N(C(=O)c2ccc4ncccc4c2)CC3)n1` [Example 66, (S)-(3-(1-Ethyl-1H-pyrazol-3-yl)-2,7-dimethyl-2,4,5,7-tetrahydro-6H-pyrazolo[3,4-c]pyridin-6-yl)(quinolin-6-yl)methanone] came in with an IC50 of 4000 nM. Under `C[C@H]1c2nn(C)c(-c3cc(C(F)(F)F)nn3C)c2CCN1C(=O)c1ccc(OC(F)(F)F)cc1Cl` [Example 113, (S)-(2-Chloro-4-(trifluoromethoxy)phenyl)(2,7-dimethyl-3-(1-methyl-3-(trifluoromethyl)-1H-pyrazol-5-yl)-2,4,5,7-tetrahydro-6H-pyrazolo[3,4-c]pyridin-6-yl)methanone] stands 9900 nM; under `C[C@H]1c2nn(C)c(-c3ccnn3C3CC3)c2CCN1C(=O)c1ccc2ncccc2c1` [Example 68, (S)-(3-(1-Cyclopropyl-1H-pyrazol-5-yl)-2,7-dimethyl-2,4,5,7-tetrahydro-6H-pyrazolo[3,4-c]pyridin-6-yl)(quinolin-6-yl)methanone], 4200 nM; under `C[C@H]1c2nn(C)c(-c3cnn(-c4ccccn4)c3)c2CCN1C(=O)c1ccc2ncccc2c1` [Example 70, (S)-(2,7-Dimethyl-3-(1-(pyridin-2-yl)-1H-pyrazol-4-yl)-2,4,5,7-tetrahydro-6H-pyrazolo[3,4-c]pyridin-6-yl)(quinolin-6-yl)methanone], 1230 nM. In the case of `C[C@H]1c2nn(C)c(-c3cc(C(F)(F)F)nn3C)c2CCN1C(=O)c1ccc(F)c2c1cnn2C` [Example 21, (S)-(2,7-Dimethyl-3-(1-methyl-3-(trifluoromethyl)-1H-pyrazol-5-yl)-2,4,5,7-tetrahydro-6H-pyrazolo[3,4-c]pyridin-6-yl)(7-fluoro-1-methyl-1H-indazol-4-yl)methanone], the IC50 turned out to be 5.6 nM.

The compound `COc1cc(C)nc2ccc(C(=O)N3CCc4c(nn(C)c4-c4cc(C(F)(F)F)nn4C)[C@@H]3C)cc12` [Example 95, (S)-(2,7-Dimethyl-3-(1-methyl-3-(trifluoromethyl)-1H-pyrazol-5-yl)-2,4,5,7-tetrahydro-6H-pyrazolo[3,4-c]pyridin-6-yl)(4-methoxy-2-methylquinolin-6-yl)methanone] showed an IC50 of 10000 nM. The result for `C[C@H]1c2nn(C)c(-c3cc(C(F)(F)F)nn3C)c2CCN1C(=O)c1cccc2nn(C)cc12` [Example 23, (S)-(2,7-Dimethyl-3-(1-methyl-3-(trifluoromethyl)-1H-pyrazol-5-yl)-2,4,5,7-tetrahydro-6H-pyrazolo[3,4-c]pyridin-6-yl)(2-methyl-2H-indazol-4-yl)methanone] reads 84 nM.
